Experimental findings from article PMC5342692, “Hyperosmotic treatment synergistically boost efficiency of cell-permeable peptides” (Oncotarget, 2016) are described below.

Like-named read-outs stand apart in the source and are kept apart here. No end group written: not given here.

Data set [1] deals with Caski cells. Nature of the data set: Fluorescent quantitation of FITC-labeled peptide uptake. The data set is classed as cell-based, human. The note with it: for intracellular fluorescence intensity of FITC-labeled CPPs with GSM combination: Caski cells co-incubated with glucose, sucrose and manntiol, fluorescence quantitation (Figure 6A).
Description: Before the 10 μM FITC-labeled peptides addition, cells were washed with phosphate-buffered saline (0.1 M PBS, pH 7.4) for 3 times. After internalization for 1 h at 37°C, cells were washed 3 times with PBS, and then observed under fluorescence microscope (Nikon, Japan) using a bandpass filter (detects FITC). In some experiments, cell was pretreated with 5% (v/v %) of DMSO in serum-free medium.
Intracellular fluorescence intensity of cells can be quantified using quantitative analysis by Multimode Spectrophotometry (Tecan 2000, Mannedorf, Switzerland). Briefly, after peptide incubation procedure shown above, cells were washed 3 times with PBS, lysed by 0.1 M NaOH at room temperature, and then centrifuged at 14000 g for 5 min. […] The fluorescence of cellular uptake is expressed as fluorescence intensity per mg of total cellular protein (protein concentration were determined using Bradford protein assay). All experiments were repeated at least three times and always performed in triplicate.
Data set [2] has as its system Caski cells. Nature of the data set: MTT cell viability analysis. Conditions: glycerol (30 mM) and glycine (15 mM) together. The protocol:
MTT assay was used to assess cell viability. Briefly, cells (4 × 10^4 cells) were seeded in one well of 96-well plates and cultivated in an RPMI-1640 medium for 24 h. Cells were washed with PBS and then adding different concentrations of supplements with a serum-free medium, incubated for 2 h at 37°C and washed with PBS twice, then incubated with fresh medium containing serum for 24 h. Then, 20 μl of MTT (5.5 mg/ml) in serum-free media was added directly to each well and incubated for 4 h at 37°C. Removing the supernatant and then adding 100 μl of DMSO, and incubated at 37°C for another 30 min before quantifying the absorbance at 550 nm.

For data set [3], the system named is HepG2 cells. Kind of data set: Fluorescent quantitation of FITC-labeled peptide uptake. The note with it: HepG2 cells co-incubated with glucose, sucrose and manntiol; fluorescence quantitation (Figure 6B).
Description: (§1) HeLa, Siha, Caski, HepG2, A549 or B16 cells (density: 5 × 10^5 cells per well) were seeded into 24-well-plates (Greiner, Germany) and cultivated in RPMI-1640 medium for 24 h. Before the 10 μM FITC-labeled peptides addition, cells were washed with phosphate-buffered saline (0.1 M PBS, pH 7.4) for 3 times. After internalization for 1 h at 37°C, cells were washed 3 times with PBS, and then observed under fluorescence microscope (Nikon, Japan) using a bandpass filter (detects FITC). In some experiments, cell was pretreated with 5% (v/v %) of DMSO in serum-free medium.
Intracellular fluorescence intensity of cells can be quantified using quantitative analysis by Multimode Spectrophotometry (Tecan 2000, Mannedorf, Switzerland). Briefly, after peptide incubation procedure shown above, cells were washed 3 times with PBS, lysed by 0.1 M NaOH at room temperature, and then centrifuged at 14000 g for 5 min. The fluorescence intensity of the supernatant was measured at the wavelength of 494/518 nm in a Multimode Microplate Reader. The fluorescence of cellular uptake is expressed as fluorescence intensity per mg of total cellular protein (protein concentration were determined using Bradford protein assay). All experiments were repeated at least three times and always performed in triplicate.
For data set [4], the system named is A549 and Siha cells. The class given is cell-based, human.
Description: as §1
Data set [5] has as its system Caski cells.
Description: as §1
The mark [6] stands for this setting: glycerol and glycine combination or separately, fluorescence quantitation (Figure 4D).

For `OCC(O)CO` [glycerol], in data set [1] (setting [6]), the “penetration enhancing activity on TAT-FITC” value is reported as “no significant penetration enhancing activity”.

For `NCC(=O)O` [glycine], the “penetration enhancing activity on TAT-FITC” value in data set [1] is given as “no significant penetration enhancing activity”. In addition, the “cell viability (MTT) with glycerol and glycine addition during GSM treatment” value in data set [2] (at 24 h (Figure 4A)), in data set [2] (at 48 h (Figure 4B)) and in data set [2] (at 72 h (Figure 4C)) was “rescue the cell viability” throughout.

Turning to “KIPLPRFKLKCIFCKKRRKR [hPP10, newly found human-derived CPP labeled with FITC]”, the “intracellular fluorescence intensity of FITC-labeled CPPs with GSM combination” value in data set [1] was “facilitate the penetration efficiency”.

For RKDRRGGEMMKQKRQRE [NLS], the “intracellular fluorescence intensity of FITC-labeled CPPs with GSM combination” value in data set [1] and in data set [3] was “facilitate the penetration efficiency” in each case.

As for YGRKKRRQRRRK [TAT-FITC], the “TAT uptake with glucose and manntiol in different cell lines” value in data set [4] is on record as “enhance the penetration of TAT uptake”. For the same molecule, the “TAT penetration efficiency at different temperatures” value in data set [1] (4 and 37°C, GSM combination (Figure 7B)) is given as “decreased at lower temperatures”. Further, the “TAT penetration with GSM combination, effect of washing method” value in data set [1] (PBS washing vs 0.025% trypsin washing (Supplementary Figure S3)) was “no difference between PBS washing and 0.025% trypsin washing method”. The “TAT-FITC uptake with glucose and manntiol combination” value in data set [1] (co-incubated with glucose and manntiol (100 to 300 mM) 1 h, then TAT-FITC 1 h at 37°C, fluorescence quantitation (Figure 3B)) is reported as “improved”. Also, the “TAT-FITC uptake with glucose and sucrose combination” value in data set [1] (co-incubated with glucose and sucrose (100 to 300 mM) 1 h, then TAT-FITC 1 h at 37°C, fluorescence quantitation (Figure 3A)) was “improved”. For the same molecule, the “TAT-FITC uptake with GSM combination” value in data set [1] (co-incubated with glucose, sucrose and manntiol (50 to 300 mM) 1 h, then TAT-FITC 1 h at 37°C, fluorescence quantitation (Figure 3D)) is recorded as “increasing as the concentration gradient”. The “TAT-FITC uptake with sucrose and manntiol combination” value in data set [1] (co-incubated with sucrose and manntiol (100 to 300 mM) 1 h, then TAT-FITC 1 h at 37°C, fluorescence quantitation (Figure 3C)) was “improved”. Besides, the “TAT penetration enhancement, dose ranging” value in data set [1] (glucose, sucrose, manntiol from 200 to 600 mM, lysate fluorescence 494/518 nm per mg protein (Figure 2B)) is “dependent on the concentration of glucose, sucrose and manntiol”. Also, the “TAT-FITC penetration efficiency in the presence of glycerol and glycine” value in data set [1] (setting [6]) was “not observed”. Besides, the “intracellular delivery efficiency of TAT-FITC with NH4Cl” value in data set [1] (lysosomotrophic neutralizing agent NH4Cl, in the presence of GSM combination (Figure 7D)) is reported as “significantly decreased”. The “intracellular delivery efficiency of TAT-FITC with NaN3” value in data set [1] (metabolic inhibitor NaN3, in the presence of GSM combination (Figure 7C)) is reported as “significantly decreased”. Further, the “TAT penetration efficiency with serum” value in data set [1] (with vs without 10% fetal bovine serum (FBS), GSM combination (Figure 7A)) is “remains decreased”. In data set [5], the “TAT penetration efficiency with galactose treatment” value is “partially enhance the penetration efficiency” and the “enhancement of TAT-FITC penetration by chloroquine” value is given as “limited”.
